Data: patent US4587342A, “2,4-diamino-(substituted-benzopyran(quinolyl,isoquinoly)methyl)pyrimidine s useful as antibacterials” (priority 1980, dated 1986)
In brackets after ≈: the same amount, converted by molar mass. Entries after “also recorded” stand apart in the source; their conditions may differ.

test system: Pr. mirabilis S2409; assay: MIC against Pr. mirabilis S2409 in vitro; format: cell-based; conditions: Proteus mirabilis, read-out: Minimum Inhibitory Concentration (MIC)
Source text: (§1) The compounds of the present invention were subjected to standard tests in order to determine the minimum inhibitory concentration in μg/ml needed to inhibit a range of bacterial microorganisms in-vitro.

For `COc1cc(Cc2cnc(N)nc2N)c2ccncc2c1N.Cl.Cl` [Compound 25, 2,4-Diamino-5-(8-amino-7-methoxy-5-isoquinolylmethyl)pyrimidine dihydrochloride], which MIC is on record?
The MIC was 5 µg/mL.

For `COc1cc(Cc2cnc(N)nc2N)c2c(c1OC)OCC=C2` [Compound 1, 2,4-Diamino-5-(7,8-dimethoxy-2 --H--1-benzopyran-5-ylmethyl)-pyrimidine], which MIC is on record?
The MIC was 5 µg/mL (≈ 15.9 µM).

With `COc1cc(Cc2cnc(N)nc2N)c2c(c1OC)OC(C)C=C2` (stereo not shown) [Compound 4, 2,4-Diamino-5-(7,8-dimethoxy-2-methyl-2 --H--1-benzopyran-5-ylmethyl) pyrimidine lactate] as the molecule, how does the MIC read?
Its MIC is 5 µg/mL.

test system: four individual gram negative microorganisms and one isolate of S. aureus; assay: Checkerboard potentiation study with SMX, overall; format: cell-based; conditions: words
Method: 2. Compound Preparation. Compound 1, trimethoprim (TMP) and SMX were each treated with N,N-dimethylformamide for 30 minutes. Dilutions were prepared using sterile distilled water.
3. Testing procedure. Two checkerboard patterns were set-up, namely: 1. SMX and TMP-lactate and 2. SMX and compound 1-lactate. Thirteen, two-fold dilutions of compound 1-lactate were prepared with final concentrations ranging from 6.2 ug/ml to 0.0016 ug/ml. Twenty two, two-fold dilutions of SMX were prepared with final plate concentrations ranging from 31 ug/ml to 0.000016 ug/ml. An analogous checkerboard scheme was set-up for the combination TMP and SMX. Microorganisms were grown on Wellcotest Sensitivity Test Agar containing various concentrations and permutations of compounds.
From the MIC's, a fractional inhibitory concentration (FIC) was calculated. This involves determining a fraction by dividing the MIC of an agent in combination over the MIC of the agent alone (1). If it is less than one, the interaction is synergistic, and if the sum is greater than one, the combination is antagonistic.

Which “in vitro potentiation with SMX” value does the source give for `COc1cc(Cc2cnc(N)nc2N)c2c(c1OC)OCC=C2` [Compound 1, 2,4-Diamino-5-(7,8-dimethoxy-2 --H--1-benzopyran-5-ylmethyl)-pyrimidine] here?
The value was “SMX appears to potentiate compound 1 as well as it does TMP; also recorded: in vitro potentation can be demonstrated between SMX and compound 1 in the case of four individual gram negative microorganisms and one isolate of S. aureus”.

test system: Staph. aureus; assay: MIC vs Staph. aureus (Table 2); format: cell-based; conditions: Staphylococcus aureus, strain not given
Source text: as §1

Which MIC does the source give for `Cc1cc(Cc2cnc(N)nc2N)c2ncccc2c1N` [Compound 34, 2,4-Diamino-5-(5-amino-6-methyl-8-quinolylmethyl)pyrimidine] here?
Its MIC is 5 µg/mL (≈ 17.8 µM).

test system: Gonococci; assay: MIC against Gonococci in vitro; format: cell-based; conditions: Gonococci (average 17 strains); read-out: Minimum Inhibitory Concentration (MIC)
Source text: as §1

For `COc1cc(Cc2cnc(N)nc2N)c2ccncc2c1N.Cl.Cl` [Compound 25, 2,4-Diamino-5-(8-amino-7-methoxy-5-isoquinolylmethyl)pyrimidine dihydrochloride], which MIC is on record?
The MIC was 8.1 µg/mL.

Which MIC does the source give for `COc1cc(Cc2cnc(N)nc2N)c2c(c1OC)OCC=C2` [Compound 1, 2,4-Diamino-5-(7,8-dimethoxy-2 --H--1-benzopyran-5-ylmethyl)-pyrimidine] here?
The MIC was 10 µg/mL (≈ 31.8 µM).

With `COc1cc(Cc2cnc(N)nc2N)c2c(c1OC)OC(C)C=C2` (stereo not shown) [Compound 4, 2,4-Diamino-5-(7,8-dimethoxy-2-methyl-2 --H--1-benzopyran-5-ylmethyl) pyrimidine lactate] as the molecule, how does the MIC read?
Its MIC is 4.6 µg/mL.

test system: not listed separately; assay: Acute toxicity in mouse; conditions: in vivo, ip; i.p. mouse

Which LD50 does the source give for `COc1cc(Cc2cnc(N)nc2N)c2c(c1OC)OCC=C2` [Compound 1, 2,4-Diamino-5-(7,8-dimethoxy-2 --H--1-benzopyran-5-ylmethyl)-pyrimidine] here?
Its LD50 is 610 mg/kg.

test system: not listed separately; assay: Acute toxicity in rat; conditions: in vivo, po; p.o. rat

For `COc1cc(Cc2cnc(N)nc2N)c2c(c1OC)OCC=C2` [Compound 1, 2,4-Diamino-5-(7,8-dimethoxy-2 --H--1-benzopyran-5-ylmethyl)-pyrimidine], which LD50 is on record?
The LD50 was over 1000 mg/kg.

test system: Meningococci; assay: MIC against Meningococci in vitro; format: cell-based; conditions: Meningococci (average 5 strains); read-out: Minimum Inhibitory Concentration (MIC)
Source text: as §1

With `COc1cc(Cc2cnc(N)nc2N)c2ccncc2c1N.Cl.Cl` [Compound 25, 2,4-Diamino-5-(8-amino-7-methoxy-5-isoquinolylmethyl)pyrimidine dihydrochloride] as the molecule, how does the MIC read?
The MIC was 3.1 µg/mL.

With `COc1cc(Cc2cnc(N)nc2N)c2c(c1OC)OCC=C2` [Compound 1, 2,4-Diamino-5-(7,8-dimethoxy-2 --H--1-benzopyran-5-ylmethyl)-pyrimidine] as the molecule, how does the MIC read?
The MIC was 3.1 µg/mL (≈ 9.86 µM).

For `COc1cc(Cc2cnc(N)nc2N)c2c(c1OC)OC(C)C=C2` (stereo not shown) [Compound 4, 2,4-Diamino-5-(7,8-dimethoxy-2-methyl-2 --H--1-benzopyran-5-ylmethyl) pyrimidine lactate], which MIC is on record?
The MIC was 2.8 µg/mL.

test system: Vibrio cholerae ATCC14035; assay: MIC against Vibrio cholerae ATCC14035 in vitro; format: cell-based; conditions: ATCC14035, read-out: Minimum Inhibitory Concentration (MIC)
Source text: as §1

For `COc1cc(Cc2cnc(N)nc2N)c2ccncc2c1N.Cl.Cl` [Compound 25, 2,4-Diamino-5-(8-amino-7-methoxy-5-isoquinolylmethyl)pyrimidine dihydrochloride], which MIC is on record?
The MIC was 0.05 µg/mL.

For `COc1cc(Cc2cnc(N)nc2N)c2c(c1OC)OCC=C2` [Compound 1, 2,4-Diamino-5-(7,8-dimethoxy-2 --H--1-benzopyran-5-ylmethyl)-pyrimidine], which MIC is on record?
Its MIC is 0.05 µg/mL (≈ 0.159 µM).

Which MIC does the source give for `COc1cc(Cc2cnc(N)nc2N)c2c(c1OC)OC(C)C=C2` (stereo not shown) [Compound 4, 2,4-Diamino-5-(7,8-dimethoxy-2-methyl-2 --H--1-benzopyran-5-ylmethyl) pyrimidine lactate] here?
Its MIC is 0.05 µg/mL.

test system: Salmonella dublin; assay: Experimental salmonellosis in calves; format: in vivo; conditions: 0.5 mg/kg daily plus SDZ 20 mg/kg, 5 days from two days after infection; deaths/calves

For `COc1cc(Cc2cnc(N)nc2N)c2c(c1OC)OCC=C2` [Compound 1, 2,4-Diamino-5-(7,8-dimethoxy-2 --H--1-benzopyran-5-ylmethyl)-pyrimidine], which Mortality is on record?
The Mortality was 3/7.

same assay, conditions: 0.5 mg/kg plus SDZ 20 mg/kg, in comparison with TMP 1 mg/kg

With `COc1cc(Cc2cnc(N)nc2N)c2c(c1OC)OCC=C2` [Compound 1, 2,4-Diamino-5-(7,8-dimethoxy-2 --H--1-benzopyran-5-ylmethyl)-pyrimidine] as the molecule, how does the “reduction of mortality, in words” value read?
The value was “produced a reduction of mortality comparable with that in group 1 (TMP, 1 mg/kg)”.

same assay, conditions: 1 mg/kg daily plus SDZ 20 mg/kg, 5 days from two days after infection; deaths/calves

With `COc1cc(Cc2cnc(N)nc2N)c2c(c1OC)OCC=C2` [Compound 1, 2,4-Diamino-5-(7,8-dimethoxy-2 --H--1-benzopyran-5-ylmethyl)-pyrimidine] as the molecule, how does the Mortality read?
Its Mortality is 0/6.

same assay, conditions: 1 mg/kg each, plus SDZ 20 mg/kg

With `COc1cc(Cc2cnc(N)nc2N)c2c(c1OC)OCC=C2` [Compound 1, 2,4-Diamino-5-(7,8-dimethoxy-2 --H--1-benzopyran-5-ylmethyl)-pyrimidine] as the molecule, how does the “efficacy relative to TMP” value read?
The value was “clearly superior to TMP at 1 mg/kg”.

same assay, conditions: 1 mg/kg plus SDZ 20 mg/kg, in comparison with TMP 1 mg/kg (group 1)

Which “recovery of the survivors” value does the source give for `COc1cc(Cc2cnc(N)nc2N)c2c(c1OC)OCC=C2` [Compound 1, 2,4-Diamino-5-(7,8-dimethoxy-2 --H--1-benzopyran-5-ylmethyl)-pyrimidine] here?
The value was “much more rapid recovery of the survivors in group 2”.

same assay, conditions: with SDZ 20 mg/kg; conclusion from all groups

Which “effectiveness relative to TMP” value does the source give for `COc1cc(Cc2cnc(N)nc2N)c2c(c1OC)OCC=C2` [Compound 1, 2,4-Diamino-5-(7,8-dimethoxy-2 --H--1-benzopyran-5-ylmethyl)-pyrimidine] here?
Its value is “approximately twice as effective as TMP in this disease syndrome”.

test system: St. agalactiae CN1143; assay: MIC against St. agalactiae CN1143 in vitro; format: cell-based; conditions: Streptococcus agalactiae, read-out: Minimum Inhibitory Concentration (MIC)
Source text: as §1

With `COc1cc(Cc2cnc(N)nc2N)c2ccncc2c1N.Cl.Cl` [Compound 25, 2,4-Diamino-5-(8-amino-7-methoxy-5-isoquinolylmethyl)pyrimidine dihydrochloride] as the molecule, how does the MIC read?
Its MIC is 0.05 µg/mL.

For `COc1cc(Cc2cnc(N)nc2N)c2c(c1OC)OCC=C2` [Compound 1, 2,4-Diamino-5-(7,8-dimethoxy-2 --H--1-benzopyran-5-ylmethyl)-pyrimidine], which MIC is on record?
Its MIC is 0.05 µg/mL (≈ 0.159 µM).

Which MIC does the source give for `COc1cc(Cc2cnc(N)nc2N)c2c(c1OC)OC(C)C=C2` (stereo not shown) [Compound 4, 2,4-Diamino-5-(7,8-dimethoxy-2-methyl-2 --H--1-benzopyran-5-ylmethyl) pyrimidine lactate] here?
The MIC was 0.05 µg/mL.

test system: Staph. aureus CN491; assay: MIC against Staph. aureus CN491 in vitro; format: cell-based; conditions: Staphylococcus aureus, read-out: Minimum Inhibitory Concentration (MIC)
Source text: as §1

Which MIC does the source give for `COc1cc(Cc2cnc(N)nc2N)c2ccncc2c1N.Cl.Cl` [Compound 25, 2,4-Diamino-5-(8-amino-7-methoxy-5-isoquinolylmethyl)pyrimidine dihydrochloride] here?
Its MIC is 0.05 µg/mL.

For `COc1cc(Cc2cnc(N)nc2N)c2c(c1OC)OCC=C2` [Compound 1, 2,4-Diamino-5-(7,8-dimethoxy-2 --H--1-benzopyran-5-ylmethyl)-pyrimidine], which MIC is on record?
Its MIC is 0.05 µg/mL (≈ 0.159 µM).

For `COc1cc(Cc2cnc(N)nc2N)c2c(c1OC)OC(C)C=C2` (stereo not shown) [Compound 4, 2,4-Diamino-5-(7,8-dimethoxy-2-methyl-2 --H--1-benzopyran-5-ylmethyl) pyrimidine lactate], which MIC is on record?
The MIC was 0.05 µg/mL.

test system: Esch. coli CN314; assay: MIC against Esch. coli CN314 in vitro; format: cell-based; conditions: Escherichia coli, read-out: Minimum Inhibitory Concentration (MIC)
Source text: as §1

With `COc1cc(Cc2cnc(N)nc2N)c2ccncc2c1N.Cl.Cl` [Compound 25, 2,4-Diamino-5-(8-amino-7-methoxy-5-isoquinolylmethyl)pyrimidine dihydrochloride] as the molecule, how does the MIC read?
Its MIC is 0.05 µg/mL.

For `COc1cc(Cc2cnc(N)nc2N)c2c(c1OC)OCC=C2` [Compound 1, 2,4-Diamino-5-(7,8-dimethoxy-2 --H--1-benzopyran-5-ylmethyl)-pyrimidine], which MIC is on record?
Its MIC is 0.05 µg/mL (≈ 0.159 µM).

For `COc1cc(Cc2cnc(N)nc2N)c2c(c1OC)OC(C)C=C2` (stereo not shown) [Compound 4, 2,4-Diamino-5-(7,8-dimethoxy-2-methyl-2 --H--1-benzopyran-5-ylmethyl) pyrimidine lactate], which MIC is on record?
The MIC was 0.1 µg/mL.

test system: B. fragilis; assay: MIC against B. fragilis in vitro; format: cell-based; conditions: Bacteroides fragilis; B. fragilis (average 3-10 strains); read-out: Minimum Inhibitory Concentration (MIC)
Source text: as §1

For `COc1cc(Cc2cnc(N)nc2N)c2ccncc2c1N.Cl.Cl` [Compound 25, 2,4-Diamino-5-(8-amino-7-methoxy-5-isoquinolylmethyl)pyrimidine dihydrochloride], which MIC is on record?
The MIC was 2.6 µg/mL.

For `COc1cc(Cc2cnc(N)nc2N)c2c(c1OC)OCC=C2` [Compound 1, 2,4-Diamino-5-(7,8-dimethoxy-2 --H--1-benzopyran-5-ylmethyl)-pyrimidine], which MIC is on record?
The MIC was 1.08 µg/mL (≈ 3.44 µM).

Which MIC does the source give for `COc1cc(Cc2cnc(N)nc2N)c2c(c1OC)OC(C)C=C2` (stereo not shown) [Compound 4, 2,4-Diamino-5-(7,8-dimethoxy-2-methyl-2 --H--1-benzopyran-5-ylmethyl) pyrimidine lactate] here?
Its MIC is 0.48 µg/mL.

test system: St. faecalis CN478; assay: MIC against St. faecalis CN478 in vitro; format: cell-based; conditions: Enterococcus faecalis, read-out: Minimum Inhibitory Concentration (MIC)
Source text: as §1

For `COc1cc(Cc2cnc(N)nc2N)c2ccncc2c1N.Cl.Cl` [Compound 25, 2,4-Diamino-5-(8-amino-7-methoxy-5-isoquinolylmethyl)pyrimidine dihydrochloride], which MIC is on record?
Its MIC is 0.05 µg/mL.

With `COc1cc(Cc2cnc(N)nc2N)c2c(c1OC)OCC=C2` [Compound 1, 2,4-Diamino-5-(7,8-dimethoxy-2 --H--1-benzopyran-5-ylmethyl)-pyrimidine] as the molecule, how does the MIC read?
Its MIC is 0.05 µg/mL (≈ 0.159 µM).

Which MIC does the source give for `COc1cc(Cc2cnc(N)nc2N)c2c(c1OC)OC(C)C=C2` (stereo not shown) [Compound 4, 2,4-Diamino-5-(7,8-dimethoxy-2-methyl-2 --H--1-benzopyran-5-ylmethyl) pyrimidine lactate] here?
The MIC was 0.01 µg/mL.
